Test results from US8889627B2 (Teva Pharmaceutical Industries, Ltd., priority 2011, dated 2014).

Tests used:
MOG-induced EAE mice = assay: Efficacy of laquinimod alone or in combination with fingolimod in MOG-induced EAE; type: in vivo, mice (C57BL/6); conditions: for activity according to GMS compared to vehicle control: oral QD; for Duration / Onset / Mortality / GMS value / Incidence: Day 1 to 30; for Mortality: dead or moribund/total mice; for GMS value: group mean clinical score (0-6); for Incidence: sick/total mice
S1PR4 = molecular target: T1, S1PR4 (Homo sapiens, UniProt O95977); conditions: cited from earlier work
T1 sequence (O95977 1-384): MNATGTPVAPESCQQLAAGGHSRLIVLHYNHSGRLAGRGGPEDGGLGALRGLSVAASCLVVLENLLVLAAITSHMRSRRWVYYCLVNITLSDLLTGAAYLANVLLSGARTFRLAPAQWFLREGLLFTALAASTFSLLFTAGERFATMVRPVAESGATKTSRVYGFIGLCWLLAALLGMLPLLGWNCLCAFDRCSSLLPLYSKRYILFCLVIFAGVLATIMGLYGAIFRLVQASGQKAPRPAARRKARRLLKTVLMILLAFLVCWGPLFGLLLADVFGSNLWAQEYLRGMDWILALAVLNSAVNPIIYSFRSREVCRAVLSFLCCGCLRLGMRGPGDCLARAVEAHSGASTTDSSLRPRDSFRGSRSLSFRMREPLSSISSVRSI

S1PR5 = S1PR5 (Homo sapiens, UniProt Q9H228); conditions: cited from earlier work
S1PR5, sequence (Q9H228 whole entry, species assumed): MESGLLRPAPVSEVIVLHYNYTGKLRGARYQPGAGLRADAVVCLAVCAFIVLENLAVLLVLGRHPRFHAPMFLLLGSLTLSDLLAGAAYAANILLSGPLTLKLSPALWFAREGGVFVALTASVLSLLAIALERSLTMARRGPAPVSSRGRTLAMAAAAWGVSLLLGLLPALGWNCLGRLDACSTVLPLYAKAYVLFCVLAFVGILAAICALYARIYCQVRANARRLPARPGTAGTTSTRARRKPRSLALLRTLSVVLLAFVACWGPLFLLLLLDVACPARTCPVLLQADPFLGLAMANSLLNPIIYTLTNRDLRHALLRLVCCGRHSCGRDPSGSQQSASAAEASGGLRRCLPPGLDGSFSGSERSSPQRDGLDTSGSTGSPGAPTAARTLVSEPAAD

CCN(C(=O)c1c(O)c2c(Cl)cccc2n(C)c1=O)c1ccccc1 [Laquinimod]
activity according to GMS compared to vehicle control (MOG-induced EAE mice; laquinimod 10 mg/kg (sub optimal dose)): 53.1%
effectiveness against EAE (in words) (MOG-induced EAE mice; laquinimod 10 mg/kg alone): moderately effective
Duration (MOG-induced EAE mice; laquinimod 10 mg/kg oral QD): 14.1 ± 6.4 days
Onset (MOG-induced EAE mice; laquinimod 10 mg/kg oral QD): 17.1 ± 6.3 days
Mortality (MOG-induced EAE mice; laquinimod 10 mg/kg oral QD): 0/15
GMS value (MOG-induced EAE mice; laquinimod 10 mg/kg oral QD): 1.5 ± 0.8
Incidence (MOG-induced EAE mice; laquinimod 10 mg/kg oral QD): 13/15
activity according to GMS compared to vehicle control (MOG-induced EAE mice; laquinimod 25 mg/kg (optimal dose)): 81.1%
Duration (MOG-induced EAE mice; laquinimod 25 mg/kg oral QD): 8.1 ± 9.0 days
Onset (MOG-induced EAE mice; laquinimod 25 mg/kg oral QD): 22.9 ± 9.0 days
Mortality (MOG-induced EAE mice; laquinimod 25 mg/kg oral QD): 0/15
GMS value (MOG-induced EAE mice; laquinimod 25 mg/kg oral QD): 0.6 ± 0.8
Incidence (MOG-induced EAE mice; laquinimod 25 mg/kg oral QD): 7/15

CCCCCCCCc1ccc(CCC(N)(CO)COP(=O)(O)O)cc1 (stereo not shown) [Fingolimod-phosphate]
binding affinity (in words) (S1PR4): high affinity
binding affinity (in words) (S1PR5): high affinity

CCCCCCCCc1ccc(CCC(N)(CO)CO)cc1 [Fingolimod, 2-amino-2-[2-(4-octylphenyl)ethyl]propane-1,3-diol]
activity according to GMS compared to vehicle control (MOG-induced EAE mice; fingolimod 0.3 mg/kg (sub optimal dose)): 56.3%
effectiveness against EAE (in words) (MOG-induced EAE mice; fingolimod 0.3 mg/kg alone): moderately effective
Duration (MOG-induced EAE mice; fingolimod 0.3 mg/kg oral QD): 15.0 ± 6.7 days
Onset (MOG-induced EAE mice; fingolimod 0.3 mg/kg oral QD): 16.0 ± 6.7 days
Mortality (MOG-induced EAE mice; fingolimod 0.3 mg/kg oral QD): 0/15
GMS value (MOG-induced EAE mice; fingolimod 0.3 mg/kg oral QD): 1.4 ± 0.8
Incidence (MOG-induced EAE mice; fingolimod 0.3 mg/kg oral QD): 13/15
activity according to GMS compared to vehicle control (MOG-induced EAE mice; fingolimod 1 mg/kg (optimal dose)): 81.3%
Duration (MOG-induced EAE mice; fingolimod 1 mg/kg oral QD): 7.59 ± 9.1 days
Onset (MOG-induced EAE mice; fingolimod 1 mg/kg oral QD): 21.7 ± 9.3 days
Mortality (MOG-induced EAE mice; fingolimod 1 mg/kg oral QD): 0/15
GMS value (MOG-induced EAE mice; fingolimod 1 mg/kg oral QD): 0.6 ± 0.8
Incidence (MOG-induced EAE mice; fingolimod 1 mg/kg oral QD): 8/15
